For test [1], the system named is HEK293. In words: optical interference in Abeta FP readout, dose response, artefact control for IDE activator project, biochemical, fluorescence polarization (AID 588442). Particulars: Homo sapiens. Type of test: functional, cell-based.
Test [2] has as its target T1, Insulin-degrading enzyme (Homo sapiens, UniProt P14735).
T1 sequence (P14735 whole entry): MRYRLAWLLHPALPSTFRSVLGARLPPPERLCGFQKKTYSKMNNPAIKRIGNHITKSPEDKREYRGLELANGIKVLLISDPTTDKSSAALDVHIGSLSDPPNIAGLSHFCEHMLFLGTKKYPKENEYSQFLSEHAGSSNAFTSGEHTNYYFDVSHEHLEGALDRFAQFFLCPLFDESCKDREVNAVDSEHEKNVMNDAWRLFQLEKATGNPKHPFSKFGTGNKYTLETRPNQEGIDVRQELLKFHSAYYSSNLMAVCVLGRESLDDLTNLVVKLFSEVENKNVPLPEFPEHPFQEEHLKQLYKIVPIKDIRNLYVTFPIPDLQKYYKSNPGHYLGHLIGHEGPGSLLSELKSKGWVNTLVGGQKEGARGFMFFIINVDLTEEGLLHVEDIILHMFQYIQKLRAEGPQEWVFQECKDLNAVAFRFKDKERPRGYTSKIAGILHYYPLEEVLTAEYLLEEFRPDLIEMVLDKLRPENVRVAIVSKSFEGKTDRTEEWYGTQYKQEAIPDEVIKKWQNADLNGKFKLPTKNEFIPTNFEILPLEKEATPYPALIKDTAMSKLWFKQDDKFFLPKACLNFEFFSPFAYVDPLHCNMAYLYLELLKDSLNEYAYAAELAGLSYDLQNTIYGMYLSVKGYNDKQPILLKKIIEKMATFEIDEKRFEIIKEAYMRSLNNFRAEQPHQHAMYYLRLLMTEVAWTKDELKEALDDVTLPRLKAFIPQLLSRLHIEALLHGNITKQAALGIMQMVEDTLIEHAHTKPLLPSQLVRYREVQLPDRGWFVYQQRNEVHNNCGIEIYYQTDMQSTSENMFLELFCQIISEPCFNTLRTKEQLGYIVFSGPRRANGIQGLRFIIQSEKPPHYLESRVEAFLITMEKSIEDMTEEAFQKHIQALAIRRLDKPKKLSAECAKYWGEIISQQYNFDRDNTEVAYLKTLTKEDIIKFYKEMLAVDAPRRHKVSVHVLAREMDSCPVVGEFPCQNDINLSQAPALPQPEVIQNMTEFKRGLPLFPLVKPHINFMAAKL
In words: recombinant IDE activation, cell-free – biochemical, fluorescence polarization, counter-screen for IDE activator project, dose response (AID 588681).

Test [3] concerns HEK293. The test can be described thus: membrane integrity loss in HEK cells – cell-based, fluorescence, cytotoxicity control for IDE activator project, dose response (AID 588440).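 Note: cytotoxicity by LDH release measuring loss of membrane integrity.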 Type of test: functional. Conditions: Homo sapiens.
Test [4] can be described thus: viability of uninfected HEp-2 cells – cell-based, HTS, cytotoxicity control for RSV inhibitor project, dose response (AID 2410). Type of test: functional. Conditions: human respiratory syncytial virus.
The target in test [5] is T1, Insulin-degrading enzyme. In words: cellular IDE activation of Abeta substrate cleavage – fluorescence polarization, HEK cells, dose response (AID 588439). Type of test: functional, cell-based.
Test [6] deals with T2, DNA dC->dU-editing enzyme APOBEC-3G (Homo sapiens, UniProt Q9HC16). In words: Dose Response confirmation of small molecule APOBEC3G DNA Deaminase Inhibitors via a fluorescence-based single-stranded DNA deaminase assay. [Related pubchem assays (depositor defined):AID493012, AID493028]. Type of test: functional.
The target in test [7] is T2, DNA dC->dU-editing enzyme APOBEC-3G. In words: SAR analysis of small molecule inhibitors of APOBEC3G DNA Deaminase via a fluorescence-based single-stranded DNA deaminase assay - Set 2. Type of test: functional. Conditions: read-out: IC50_Mean.
Test [8] deals with T3, DNA dC->dU-editing enzyme APOBEC-3A (Homo sapiens, UniProt P31941). The test can be described thus: SAR analysis of small molecule inhibitors of APOBEC3A DNA Deaminase via a fluorescence-based single-stranded DNA deaminase assay - Set 2. Format: functional. Conditions: read-out: IC50_Mean.
Test [9] addresses T3, DNA dC->dU-editing enzyme APOBEC-3A. The test can be described thus: A3A deaminase inhibition for selectivity – biochemical, dose response (AID 504722). Type of test: functional.
Test [10] deals with T4, Rac GTPase-activating protein 1 (Homo sapiens, UniProt Q9H0H5).
T4 sequence (Q9H0H5 whole entry): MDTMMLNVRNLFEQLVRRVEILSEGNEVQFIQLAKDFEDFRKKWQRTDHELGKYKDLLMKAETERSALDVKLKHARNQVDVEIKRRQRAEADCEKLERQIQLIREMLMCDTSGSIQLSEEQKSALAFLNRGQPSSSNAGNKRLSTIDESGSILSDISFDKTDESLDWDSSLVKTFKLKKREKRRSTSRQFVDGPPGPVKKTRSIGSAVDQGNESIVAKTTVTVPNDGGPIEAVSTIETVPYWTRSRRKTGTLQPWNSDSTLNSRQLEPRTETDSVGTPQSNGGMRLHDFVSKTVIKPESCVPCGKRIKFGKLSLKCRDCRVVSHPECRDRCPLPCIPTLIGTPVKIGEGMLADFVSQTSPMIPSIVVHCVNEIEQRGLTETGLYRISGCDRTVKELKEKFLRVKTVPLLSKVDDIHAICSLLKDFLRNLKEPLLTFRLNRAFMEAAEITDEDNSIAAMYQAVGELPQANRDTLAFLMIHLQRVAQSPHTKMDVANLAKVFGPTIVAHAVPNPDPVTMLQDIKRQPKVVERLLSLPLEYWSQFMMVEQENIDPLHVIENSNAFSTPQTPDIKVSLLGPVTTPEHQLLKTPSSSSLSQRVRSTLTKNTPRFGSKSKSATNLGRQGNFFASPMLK
In words: blockers of MgcRacGAP-driven Rac1 GTP hydrolysis – biochemical, ADP Hunter fluorescence, primary and confirmatory, confirmation (AID 624330). Format: functional.

The target in test [11] is T2, DNA dC->dU-editing enzyme APOBEC-3G. In words: inhibition of APOBEC3G ssDNA deamination – biochemical, fluorescence, single-stranded DNA substrate, SAR follow-up (AID 602136). Type of test: functional. Conditions: read-out: IC50_Mean.
The target of test [12] is T3, DNA dC->dU-editing enzyme APOBEC-3A. In words: SAR analysis of small molecule inhibitors of APOBEC3A DNA Deaminase via a fluorescence-based single-stranded DNA deaminase assay. Particulars: read-out: IC50_Mean. Type of test: functional.
Test [13] has as its target T5, Sentrin-specific protease 7 (Homo sapiens, UniProt Q9BQF6).
T5 sequence (Q9BQF6 whole entry): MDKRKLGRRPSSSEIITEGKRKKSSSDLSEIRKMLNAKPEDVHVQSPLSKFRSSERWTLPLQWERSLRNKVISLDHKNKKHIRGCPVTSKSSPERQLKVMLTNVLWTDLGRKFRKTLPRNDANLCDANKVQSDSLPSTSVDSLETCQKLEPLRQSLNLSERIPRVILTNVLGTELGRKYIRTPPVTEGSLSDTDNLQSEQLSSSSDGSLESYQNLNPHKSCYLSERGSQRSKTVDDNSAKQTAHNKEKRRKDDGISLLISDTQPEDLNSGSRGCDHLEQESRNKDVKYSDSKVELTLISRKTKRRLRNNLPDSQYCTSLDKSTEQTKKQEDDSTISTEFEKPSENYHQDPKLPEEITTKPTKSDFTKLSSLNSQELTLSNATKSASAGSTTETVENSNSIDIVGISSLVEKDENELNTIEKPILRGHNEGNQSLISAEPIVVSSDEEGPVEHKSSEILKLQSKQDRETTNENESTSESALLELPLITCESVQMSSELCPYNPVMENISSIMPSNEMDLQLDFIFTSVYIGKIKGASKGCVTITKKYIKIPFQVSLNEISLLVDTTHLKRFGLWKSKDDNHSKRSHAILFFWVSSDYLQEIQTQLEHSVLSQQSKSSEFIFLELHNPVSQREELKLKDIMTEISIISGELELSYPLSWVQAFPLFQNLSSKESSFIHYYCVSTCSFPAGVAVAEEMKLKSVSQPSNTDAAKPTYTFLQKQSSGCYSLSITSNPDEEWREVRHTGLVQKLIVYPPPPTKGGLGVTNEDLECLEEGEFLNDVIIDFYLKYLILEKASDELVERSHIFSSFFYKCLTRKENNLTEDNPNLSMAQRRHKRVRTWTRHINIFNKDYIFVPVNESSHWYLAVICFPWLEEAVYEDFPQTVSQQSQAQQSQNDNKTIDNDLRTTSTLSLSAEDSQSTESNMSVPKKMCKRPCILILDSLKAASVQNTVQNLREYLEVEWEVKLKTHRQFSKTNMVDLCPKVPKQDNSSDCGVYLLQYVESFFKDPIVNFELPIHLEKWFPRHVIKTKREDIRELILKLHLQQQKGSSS
The test can be described thus: inhibition of human SENP7 cleavage activity – biochemical, luminescence, set 2, SAR follow-up (AID 588600). Format: functional.

Test [14] deals with T6, Sentrin-specific protease 8 (Homo sapiens, UniProt Q96LD8).
T6 sequence (Q96LD8 whole entry): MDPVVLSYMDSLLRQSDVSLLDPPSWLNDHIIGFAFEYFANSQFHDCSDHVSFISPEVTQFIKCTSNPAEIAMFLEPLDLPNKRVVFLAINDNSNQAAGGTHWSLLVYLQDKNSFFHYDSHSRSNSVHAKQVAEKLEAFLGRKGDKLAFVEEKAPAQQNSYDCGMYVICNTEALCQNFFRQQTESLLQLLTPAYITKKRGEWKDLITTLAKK
In words: inhibition of sentrin protease 8 – biochemical, luminescence, set 2, SAR follow-up (AID 588601). Type of test: functional.

In test [15] the target is T7, Sentrin-specific protease 6 (Homo sapiens, UniProt Q9GZR1).
T7 sequence (Q9GZR1 whole entry): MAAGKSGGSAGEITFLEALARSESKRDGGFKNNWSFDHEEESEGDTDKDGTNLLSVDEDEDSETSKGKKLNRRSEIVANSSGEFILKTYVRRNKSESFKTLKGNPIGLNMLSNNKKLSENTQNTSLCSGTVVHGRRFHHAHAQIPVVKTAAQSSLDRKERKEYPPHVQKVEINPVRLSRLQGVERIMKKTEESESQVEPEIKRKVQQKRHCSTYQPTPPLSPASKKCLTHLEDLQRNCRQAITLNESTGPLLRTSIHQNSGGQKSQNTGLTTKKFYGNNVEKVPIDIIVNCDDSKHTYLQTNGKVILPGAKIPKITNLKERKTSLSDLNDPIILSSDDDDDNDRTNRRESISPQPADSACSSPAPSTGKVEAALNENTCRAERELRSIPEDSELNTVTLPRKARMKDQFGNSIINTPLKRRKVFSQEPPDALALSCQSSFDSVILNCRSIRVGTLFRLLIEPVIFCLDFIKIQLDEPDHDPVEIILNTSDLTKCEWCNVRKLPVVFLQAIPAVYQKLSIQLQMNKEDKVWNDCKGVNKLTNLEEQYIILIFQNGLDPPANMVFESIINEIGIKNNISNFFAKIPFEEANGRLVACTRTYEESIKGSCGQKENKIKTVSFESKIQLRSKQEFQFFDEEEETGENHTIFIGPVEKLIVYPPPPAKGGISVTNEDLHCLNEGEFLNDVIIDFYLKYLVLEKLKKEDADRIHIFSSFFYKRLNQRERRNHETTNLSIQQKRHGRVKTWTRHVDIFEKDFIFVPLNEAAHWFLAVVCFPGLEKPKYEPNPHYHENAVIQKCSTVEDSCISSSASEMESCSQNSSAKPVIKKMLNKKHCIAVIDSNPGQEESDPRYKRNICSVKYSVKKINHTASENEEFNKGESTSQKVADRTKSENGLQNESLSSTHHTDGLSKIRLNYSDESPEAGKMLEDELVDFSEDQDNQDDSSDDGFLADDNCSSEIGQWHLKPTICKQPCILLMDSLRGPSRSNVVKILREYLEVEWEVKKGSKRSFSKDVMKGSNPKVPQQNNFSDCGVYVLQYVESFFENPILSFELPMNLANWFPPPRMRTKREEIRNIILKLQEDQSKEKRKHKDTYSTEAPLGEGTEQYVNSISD
In words: inhibition of human SENP6 catalytic domain – biochemical, luminescence, set 2, SAR follow-up (AID 588598). Type of test: functional.

The target in the next test is T8, Caspase-3 (Homo sapiens, UniProt P42574).
T8 sequence (P42574 whole entry): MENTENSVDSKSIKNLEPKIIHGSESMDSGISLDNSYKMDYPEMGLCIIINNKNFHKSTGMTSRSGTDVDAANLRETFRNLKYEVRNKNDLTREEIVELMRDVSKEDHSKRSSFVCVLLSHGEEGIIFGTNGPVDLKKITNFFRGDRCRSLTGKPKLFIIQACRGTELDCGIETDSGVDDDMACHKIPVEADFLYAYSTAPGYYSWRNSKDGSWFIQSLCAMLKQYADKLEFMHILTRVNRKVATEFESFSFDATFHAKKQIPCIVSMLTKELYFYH
In words: inhibition of recombinant caspase-3 activity – biochemical, luminescence, set 2, selectivity assay for SENP protease inhibitor project, SAR follow-up (AID 588599). Type of test: functional.

These results are taken from ChEMBL document CHEMBL1201862, “PubChem BioAssay data set” (2004).

Activity calls are given as the source filed them. Where only a bound is given, the exact number is not on record here.

T2 sequence (Q9HC16 whole entry): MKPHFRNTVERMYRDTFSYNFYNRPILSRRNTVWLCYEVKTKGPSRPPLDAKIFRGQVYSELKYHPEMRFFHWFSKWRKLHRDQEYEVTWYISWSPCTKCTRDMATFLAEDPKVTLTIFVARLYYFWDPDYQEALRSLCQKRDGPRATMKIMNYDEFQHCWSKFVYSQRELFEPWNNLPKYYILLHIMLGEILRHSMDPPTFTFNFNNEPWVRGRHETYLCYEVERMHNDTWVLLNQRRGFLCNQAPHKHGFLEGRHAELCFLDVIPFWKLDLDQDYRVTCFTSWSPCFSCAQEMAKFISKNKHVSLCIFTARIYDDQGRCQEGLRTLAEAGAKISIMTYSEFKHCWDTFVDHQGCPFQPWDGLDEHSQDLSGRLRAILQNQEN
T3 sequence (P31941 whole entry): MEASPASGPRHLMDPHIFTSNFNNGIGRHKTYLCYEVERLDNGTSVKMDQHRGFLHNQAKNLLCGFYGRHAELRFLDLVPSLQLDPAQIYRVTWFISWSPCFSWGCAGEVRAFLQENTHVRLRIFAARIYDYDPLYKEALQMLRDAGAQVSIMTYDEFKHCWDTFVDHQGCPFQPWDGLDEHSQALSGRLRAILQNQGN

With `COc1cc(C2Nc3cccc4cccc(c34)N2)ccc1O`, the EC50 with HEK293 [1], at Insulin-degrading enzyme [2] and on Insulin-degrading enzyme [5] was > 54.7 µM (inactive) throughout. Moreover, the IC50 with HEK293 [3] is > 89.3 µM (inactive). Also, the half-maximal cytotoxic concentration (CC50) in test [4] was 32.1 µM (active).

Take `COc1ccc(NCC(O)COc2ccc(C(C)(C)C)cc2)cc1` (centres undefined): the EC50 in the test with HEK293 [1], at Insulin-degrading enzyme [2] and on Insulin-degrading enzyme [5] was > 54.7 µM (inactive) each time. Also, the IC50 with HEK293 [3] is 49.1 µM (inactive).

Turning to `Cc1ccc(-c2csc3n[nH]c(=S)n23)cc1`, the IC50 in [6] is 1.35 µM (active); in test [7], > 99 µM (inactive); in test [8], > 99 µM (inactive); in test [9] it was > 100 µM (inactive); in [10], 58.1 µM (active); in test [11], 3.48 µM (active). Besides, the IC50 in test [12] is > 99 µM (inactive).

For the compound `CNC(=O)C1Cc2ccccc2N1C(=O)C(=O)c1c(C)[nH]c2ccccc12` (centres undefined), the IC50 (in [13]; in test [14]; in test [15]; on Caspase-3) was > 99 µM (inactive) in each case.

With `CN(C)C(=O)C(=O)c1c(-c2ccccc2)[nH]c2ccc(Cl)cc12`, the IC50 (in test [13]; in [14]; in test [15]; at Caspase-3) was > 99 µM (inactive) throughout.
